# Measured values published in patent US10798942B2, “Abiotic stress tolerance” (SYNGENTA PARTICIPATIONS AG, priority 2016, dated 2020).
# Test system: rice plants
# Test: Field trials 2012-2015: tolerance of rice plants to heat stress (eleven trials)
# Format: in vivo, Oryza sativa L.
# Experimental: Field trials were setup during the hot season in India to test the effect of treatment with the compound of formula (Ia) on tolerance of rice plants to heat stress.
# Trials were conducted in 2012, 2013, 2014, and 2015 in the Tamil Nadu rice production area (India) at the following sites: Kelamoor (lat. 12.42, long. 79.81), Kokkur (lat. 11.02, long. 79.32), Nachinargudi (lat. 11.01, long. 79.3), Velamoor (lat. 12.41, long. 79.8), Kumbakonam (lat. 10.97, long. 79.42) and Ramapuram (lat. 12.43, long. 79.83). The test sites had similar soil chemical properties, with an average soil pH of 6.6.
# Rice (Oryza sativa L.) of the local varieties ADT43, ADT45 and NK5251 were mechanically transplanted at four plants per hill with a plant spacing of 16 cm and a row spacing of 30 cm. All trials were performed in good level of water management. Fertilizer was applied in accordance with the best local practice across the trial area.
# Commercial treated seeds (no neonicotinoids as seed treatments) were used. Weed control was according to the best local practice in order to provide excellent weed control. Foliar fungicides and insecticides were applied according to common practice (no products that contain neonicotinoids or strobilurins).
# The trial design was a randomized bloc design. Plot size was 40 m^2 (4 m width [12 rows] by 10 m row length). Each trial had four replicates. In total, eleven trials were conducted.
# The compound of formula (Ia) was applied at a rate of 10 g ai/ha with small-plot hand-held boom sprayer. Application of the compound was as broadcast foliar spray in close proximity to leaf/canopy surface (25-40 cm distance from the crop). The used spray volumes were between 250 L/ha and 500 L/ha. Application was done either at panicle initiation (BBCH 30), at panicle formation (BBCH 32), at spikelet differentiation (BBCH 35), at meiosis (BBCH 39) or at heading (BBCH 51). In some experiments, the compound was applied twice (2×10 g ai/ha) at consecutive growth stages (i.e., BBCH 30+32, BBCH 32+35, BBCH 35+39, and BBCH 39+51).
# Temperature was recorded nearby the trial sites. During and up to 14 days after the critical growth stages (i.e. from panicle initiation until heading) the mean daily minimum temperature was 25.1° C. (in the range of 22.6° C. to 27.1° C.) and the mean daily maximum temperature was 35.5° C. (in the range of 29.0 to 38.9° C.).
# Tolerance to heat stress was assessed by measuring the following yield components: number of panicles per area, number of grains per panicle, percentage of ripened (filled) grains, number of tillers per area, percentage of productive tillers, grain yield per area at 14% moisture and thousand grain weight (TGVV).
# The data in Tables 1 to 3 represent averages of the results from all eleven independent field trials, expressed as a percentage compared to the untreated control. The percentage increase or decrease was calculated for each trial relative to the untreated control for that trial, prior to calculating the mean percentage change across all 11 trials.
# [1] = BBCH 30 at application, 10 g ai/ha foliar spray, mean of 11 trials, mean daily min 25.1° C., max 35.5° C.
# [2] = BBCH 32 at application, 10 g ai/ha foliar spray, mean of 11 trials, mean daily min 25.1° C., max 35.5° C.
# [3] = BBCH 35 at application, 10 g ai/ha foliar spray, mean of 11 trials, mean daily min 25.1° C., max 35.5° C.
# [4] = BBCH 39 at application, 10 g ai/ha foliar spray, mean of 11 trials, mean daily min 25.1° C., max 35.5° C.
# [5] = BBCH 51 at application, 10 g ai/ha foliar spray, mean of 11 trials, mean daily min 25.1° C., max 35.5° C.
# [6] = maximum air temperature 35.1-36 ° C. during five days after application, applied between BBCH 30 and BBCH 51, 10 g ai/ha
# [7] = maximum air temperature 36.1-37 ° C. during five days after application, applied between BBCH 30 and BBCH 51, 10 g ai/ha
# [8] = maximum air temperature >37 ° C. during five days after application, applied between BBCH 30 and BBCH 51, 10 g ai/ha
# [9] = maximum air temperature ≤35 ° C. during five days after application, applied between BBCH 30 and BBCH 51, 10 g ai/ha
smiles,measurement,setting,value
COc1cccc(Nc2nc(F)nc3[nH]cnc23)c1 [formula (Ia)],Empty spikelets (% of UTC),[1],−7.5 % of UTC
same,"TGW (% of UTC), thousand grain weight",[1],+2.5 % of UTC
same,Grain yield (% of UTC),"BBCH 30 at application, 10 g ai/ha foliar spray, mean of 11 trials, mean daily min 25.1° C., max 35.5° C. during 14 days after application",+6.0 % of UTC
same,grain yield (as percent change compared to untreated controls),"BBCH 30 at application, maximum air temperature >36° C. during five days after application, 10 g ai/ha",+7.5%
same,grain yield (as percent change compared to untreated controls),"BBCH 30 at application, maximum air temperature ≤36° C. during five days after application, 10 g ai/ha",+1.6%
same,Empty spikelets (% of UTC),[2],−9.3 % of UTC
same,Grain yield (% of UTC),[2],+7.4 % of UTC
same,"TGW (% of UTC), thousand grain weight",[2],+2.2 % of UTC
same,grain yield (as percent change compared to untreated controls),"BBCH 32 at application, maximum air temperature >36° C. during five days after application, 10 g ai/ha",+9.0%
same,grain yield (as percent change compared to untreated controls),"BBCH 32 at application, maximum air temperature ≤36° C. during five days after application, 10 g ai/ha",+0.7%
same,Empty spikelets (% of UTC),[3],−3.8 % of UTC
same,Grain yield (% of UTC),[3],+4.7 % of UTC
same,"TGW (% of UTC), thousand grain weight",[3],+1.8 % of UTC
same,grain yield (as percent change compared to untreated controls),"BBCH 35 at application, maximum air temperature >36° C. during five days after application, 10 g ai/ha",+5.4%
same,grain yield (as percent change compared to untreated controls),"BBCH 35 at application, maximum air temperature ≤36° C. during five days after application, 10 g ai/ha",+1.8%
same,Empty spikelets (% of UTC),[4],−6.6 % of UTC
same,Grain yield (% of UTC),[4],+4.9 % of UTC
same,"TGW (% of UTC), thousand grain weight",[4],+1.6 % of UTC
same,grain yield (as percent change compared to untreated controls),"BBCH 39 at application, maximum air temperature >36° C. during five days after application, 10 g ai/ha",+5.1%
same,grain yield (as percent change compared to untreated controls),"BBCH 39 at application, maximum air temperature ≤36° C. during five days after application, 10 g ai/ha",+2.6%
same,Empty spikelets (% of UTC),[5],−3.5 % of UTC
same,Grain yield (% of UTC),[5],+2.8 % of UTC
same,"TGW (% of UTC), thousand grain weight",[5],+2.0 % of UTC
same,grain yield (as percent change compared to untreated controls),"BBCH 51 at application, maximum air temperature >36° C. during five days after application, 10 g ai/ha",+3.6%
same,grain yield (as percent change compared to untreated controls),"BBCH 51 at application, maximum air temperature ≤36° C. during five days after application, 10 g ai/ha",−0.7%
same,"grain yield, effect in words",applied between BBCH 30 (panicle initiation) and BBCH 51 (heading),an increase of grain yield was achieved
same,"effect of treatment on rice grain yield, in words",daily maximum temperature above 36° C. at least one day after application but within 5 days after application,clear beneficial effect
same,Grain yield (% of UTC),[6],+1.1 % of UTC
same,TGW (% of UTC),[6],+2.3 % of UTC
same,Grain yield (% of UTC),[7],+5.5 % of UTC
same,TGW (% of UTC),[7],+2.2 % of UTC
same,Grain yield (% of UTC),[8],+6.6 % of UTC
same,TGW (% of UTC),[8],+1.8 % of UTC
same,Grain yield (% of UTC),[9],+0.9 % of UTC
same,TGW (% of UTC),[9],+1.4 % of UTC
same,"heat stress protection, in words",plants at growth stages from panicle initiation (BBCH 30) to heading (BBCH 51) at the time of treatment,heat stress protection was achieved
